# Laboratory results from patent US20120309683A1, “USE OF […] ADENYLATE CYCLASE-ACTIVATING POLYPEPTIDE (PACAP) AND PACAP ANALOGS AS ADJUNCTIVE TREATMENTS WITH INHIBITORS OF CALCINEURIN OR INHIBITORS OF THE […] TARGET OF RAPAMYCIN (mTOR) COMPLEXES” (The Administrators of the Tulane Educational Fund, priority 2010, published 2012).
# Read-outs that look alike come from different tables or passages of the source. Where no end group is shown, it is not given here. [ ]: non-standard residue; d: D form. The star is where a group is joined. Palmitoyl = CCCCCCCCCCCCCCCC(=O)*; Aib = CC(C)(N)C(=O)O
# Assays:
# [1] = system: HK-2 human kidney cells (human renal proximal tubule epithelial cells); assay: Sirolimus-induced apoptotic cell death of HK-2 cells, histone-associated DNA fragmentation; type: cell-based
# Description: The HK-2 human kidney cells were cultured in Keratinocyte-Serum Free Medium supplemented with recombinant epidermal growth factor and bovine pituitary extract. The dose-dependent inhibitory effect of PACAP38 on apoptotic cell death was assessed by the quantitative determination of cytoplasmic histone-associated DNA-fragmentation (mono- and oligonucleosomes) after exposure to 100 ng/ml of sirolimus for 24 hours. Each value represents the mean plus/minus the standard error of eight determinations. **p<0.01 and *p<0.05 compared to the cells treated only with sirolimus.
# [2] = system: light-chain immunoglobulin-secreting human multiple myeloma cells; assay: Proliferation of multiple myeloma cells with sirolimus, bromodeoxyuridine incorporation; type: cell-based; settings: for rate of proliferation of the human B-lymphocyte cell line: multiple myeloma cells with sirolimus, 10^−9 M to 10^−6 M peptide, 24-hour incubation
# Description: The light-chain immunoglobulin-secreting human multiple myeloma cells were cultured in RPMI 1640 medium supplemented with 10% non-inactivated fetal bovine serum and 0.05 mM 2-mercaptoethanol. The effects of PACAP38, PACAP27 and PACAP analogs on myeloma cell proliferation were assessed by determining incorporation of bromodeoxyuridine into DNA during cell division. The number of myeloma cells approximately doubled during the 24-hour incubation period in the absence of treatment with PACAP-like peptides. Four different concentrations, ranging from 10^−9 M to 10^−6 M, were tested for PACAP38, PACAP27 and each of the PACAP analogs. Each value represents the mean plus/minus the standard error of four determinations. **p<0.01 and *p<0.05 compared to the cells treated only with sirolimus.
# The effects of PACAP38, PACAP27 and PACAP analogs on human cell proliferation were assessed by determining incorporation of bromodeoxyuridine into DNA during cell division. […] At the highest dose (10^−6 M), PACAP38 inhibited the proliferation by more than 50%.
# [3] = system: Jurkat human T-lymphocyte cells; assay: Proliferation of Jurkat cells, bromodeoxyuridine incorporation; type: cell-based; settings: for rate of proliferation of the human T-lymphocyte cell line: mitogen-stimulated Jurkat cells, 24 hours
# Description: (§1) The Jurkat human T-lymphocyte cells were cultured in RPMI 1640 medium supplemented with 10% heat-inactivated fetal calf serum. The Jurkat cells were stimulated with mitogens (1 mg/ml of PHA and 50 ng/ml of PMA).
# (§2) However, when Jurkat cells were stimulated with PHA and PMA, large quantities of interleukin-2 could be detected in the medium (FIG. 9). […] At the highest dose (10^−5 M), PACAP38 inhibited the proliferation of the Jurkat cells by more than 50%.
# [4] = system: Male C57BL/6 mice; assay: Cyclosporine A-induced nephrotoxicity in mice (serum creatinine, kidney TGF-β1); type: in vivo; settings: cyclosporine A 5 mg/kg i.p., 20 μg PACAP38 i.p. 1 h before, 24 and 48 h
# Description: The control group of mice was injected intraperitoneally with the same volume of saline as for the injections of cyclosporine A and PACAP38 on the same schedule. The mice were euthanized 24 hours after the final injection of PACAP38.
# Male C57BL/6 mice were given a single intraperitoneal injection of 5 mg/kg of cyclosporine A. Twenty micrograms of PACAP38 were given intraperitoneally 1 hour before the injection of cyclosporine A and additional doses were given at 24 and 48 hours after the initial dose. The control group of mice was injected intraperitoneally with the same volume of saline as for the injections of cyclosporine A and PACAP38 on the same schedule. The mice were euthanized 24 hours after the final injection of PACAP38.
# [5] = system: rat; settings: 15-minute occlusion, continuous infusion; cited from earlier work
# [6] = system: Jurkat human T-lymphocyte cells; assay: Inhibition by cyclosporine A of IL-2 secretion from Jurkat cells, enhancement by peptides; type: cell-based; settings: peptide added on top of cyclosporine, 24 hours
# Description: as §1, with “PMA). […] Each value represents the mean plus/minus the standard error of eight determinations. **p<0.01 and *p<0.05 compared to the cells treated only with the mitogens.” for “PMA).”
# However, when Jurkat cells were stimulated with PHA and PMA, large quantities of interleukin-2 could be detected in the medium (FIG. 11).
# [7] = system: HK-2 human kidney cells (human renal proximal tubule epithelial cells); assay: Cyclosporine A-induced injury (cytotoxicity) of HK-2 cells, lactate dehydrogenase in culture medium; type: cell-based; settings: PACAP38 10^−8 M added to medium of cyclosporine A-treated HK-2 cells
# Description: (§3) The effects of PACAP38 at a concentration of 10^−8 M on cell injury were assessed by determining the activity of the cytoplasmic enzyme lactate dehydrogenase in the culture medium. Each value represents the mean plus/minus the standard error of four determinations. **p<0.01 compared to the cells treated only with cyclosporine A.
# [8] = system: HK-2 human kidney cells (human renal proximal tubule epithelial cells); assay: Tacrolimus-induced loss of viability of HK-2 cells, lactate dehydrogenase in intact cells; type: cell-based; settings: for loss of viable human renal proximal tubule epithelial cells caused by tacrolimus: various concentrations of peptide added to medium
# Description: The HK-2 human kidney cells were cultured in Keratinocyte-Serum Free Medium supplemented with recombinant epidermal growth factor and bovine pituitary extract. […] Each value represents the mean plus/minus the standard error of five determinations. **p<0.01 and *p<0.05 compared to the cells treated only with tacrolimus.
# [9] = system: human T-lymphocyte cells (Jurkat); assay: Methotrexate-induced apoptotic cell death of Jurkat cells; type: cell-based; settings: methotrexate and PACAP38 for 24 hours, same dose range
# Description: The Jurkat cells were cultured in RPMI 1640 medium supplemented with 10% heat-inactivated fetal calf serum. The cells were treated with PACAP38 for 24 hours. The […] effects of PACAP38 on apoptotic cell death were assessed by the quantitative determination of cytoplasmic histone-associated DNA-fragmentation (mono- and oligonucleosomes) after exposure to methotrexate for 24 hours. Each value represents the mean plus/minus the standard error of eight determinations. **p<0.01 and *p<0.05 compared to the cells treated only with methotrexate.
# (§4) An ideal cytoprotective adjunctive agent should have the same effect as the main therapeutic agent against the intended therapeutic target, but protect the patient against the deleterious “off-target” effects of the main therapeutic. […] Furthermore, these experiments indicate that PACAP-like compounds would be beneficial as monotherapeutics for the treatment of leukemias. These experiments also indicate that combination therapy with PACAP-like compounds plus azathioprine or 6-mercaptopurine would result in an increased therapeutic index compared to azathioprine or 6-mercaptopurine, respectively, alone.
# [10] = system: HK-2 human kidney cells; assay: Morphology of HK-2 cells, phase-contrast microscopy; type: cell-based; settings: 50 μM cyclosporine A and 10^−8 M PACAP38 for 48 hours
# Description: The cells were visualized with an inverted phase-contrast microscope. The HK-2 human kidney cells were grown to 80% confluence. (A) The morphology of the HK-2 cells grown in normal medium.
# [11] = system: rat; settings: 48 hours, cited from earlier work
# [12] = system: human renal proximal tubule epithelial cells (HK-2); assay: TGF-β1 secretion by HK-2 cells treated with cyclosporine A; type: cell-based; settings: PACAP38 10^−8 M, cyclosporine A-treated HK-2 cells
# Description: as §3, with “the production of TGF-β1” for “cell injury”, “concentration” for “activity”, “TGF-β1” for “the cytoplasmic enzyme lactate dehydrogenase”, “six” for “four”
# [13] = system: human renal proximal tubule epithelial cells; assay: Methotrexate-induced apoptotic cell death of human renal proximal tubule epithelial cells; type: cell-based; settings: methotrexate for 24 hours
# Description: The inhibitory effects of PACAP38 on apoptotic cell death were assessed by the quantitative determination of cytoplasmic histone-associated DNA-fragmentation (mono- and oligonucleosomes) after exposure to methotrexate for 24 hours. Each value represents the mean plus/minus the standard deviation of six determinations. **p<0.01 and *p<0.05 compared to the cells treated only with methotrexate.
# as §4
# [14] = system: Jurkat human T-lymphocyte cells; assay: Mitogen-stimulated secretion of interleukin-2 from Jurkat cells; type: cell-based; settings: PHA and PMA stimulated Jurkat cells; for mitogen-induced secretion of interleukin-2 into the medium: 24 hours
# Description: The Jurkat human T-lymphocyte cells were cultured in RPMI 1640 medium supplemented with 10% heat-inactivated fetal calf serum. The Jurkat cells were stimulated with the mitogens phytohemagglutinin (PHA, 1 mg/ml) and phorbol 12-myristate 13-acetate (PMA, 50 ng/ml). […] Each value represents the mean plus/minus the standard error of eight determinations. **p<0.01 and *p<0.05 compared to the cells treated only with the mitogens.
# as §2
# [15] = system: MCF-7 human breast cancer cells; settings: nude mice; cited from earlier work
# [16] = system: NCI-H838 human non-small cell lung cancer cells; settings: nude mice; cited from earlier work
# [17] = system: PC-3 human prostate cancer cells; settings: nude mice; cited from earlier work
# [18] = rat, in vivo, iv; cited from earlier work
compound,measurement,setting,value
"CO[C@H]1C[C@@H]2CC[C@@H](C)[C@@](O)(O2)C(=O)C(=O)N2CCCC[C@H]2C(=O)O[C@H]([C@H](C)C[C@@H]2CC[C@@H](O)[C@H](OC)C2)CC(=O)[C@H](C)/C=C(\C)[C@@H](O)[C@@H](OC)C(=O)[C@H](C)C[C@H](C)/C=C/C=C/C=C/1C [sirolimus, reference compound]",apoptotic cell death,"[1]; 100 ng/ml sirolimus for 24 hours, HK-2 cells",large significant increase in apoptotic cell death
PACAP27 (HSDGIFTDSYSRYRKQMAVKKYLAAVL-NH2; listed as Homo sapiens),rate of proliferation of the human B-lymphocyte cell line,[2],significant dose-dependent inhibition
PACAP38,inhibition of proliferation of Jurkat cells,[3]; highest dose 10^−5 M,more than 50%
same,rate of proliferation of the human T-lymphocyte cell line,[3],significant dose-dependent inhibition
same,increase in TGF-β1 in the kidney,[4],significantly reduced the increases
same,increase in serum creatinine,[4],significantly reduced the increases
same,reduction in the number of CA1 pyramidal cells at day 7 post-occlusion,[5],significantly reversed
same,cyclosporine-induced inhibition of interleukin-2 secretion,[6],small dose-dependent enhancement
same,cyclosporine A-induced cell death,[7],almost completely prevented
same,potency as a renoprotectant relative to VIP,[8]; tacrolimus-treated HK-2 cells,significantly more potent than VIP
same,loss of viable human renal proximal tubule epithelial cells caused by tacrolimus,[8],significant dose-dependent reduction
same,killing of human T lymphocyte cells by methotrexate (apoptotic cell death),[9],potently stimulates the killing
same,"restoration of the cell monolayer, confluence",[10],70-80%
same,number of grossly elongated and filopodia-formatted cells,[10]; versus cyclosporine A alone,marked reduction
same,inhibition of proliferation,[2]; highest dose 10^−6 M,more than 50%
same,rate of proliferation of the human B-lymphocyte cell line,[2],significant dose-dependent inhibition
same,reduction of the infarct volume,[11]; continuous i.v. infusion beginning 4 hours after start of 2 h MCAO,approximately 51%
same,reduction of the infarct volume,[11]; continuous i.v. infusion beginning 8 hours after start of 2 h MCAO,~22%
same,reduction of the infarct volume,[11]; continuous i.v. infusion beginning 12 hours after start of 2 h MCAO,~12%
same,sirolimus-induced apoptotic cell death,[1]; highest dose 10^−6 M,almost completely prevented
same,sirolimus-induced apoptotic cell death,[1]; varying concentrations of PACAP38,significant dose-dependent reduction
same,cyclosporine A-induced secretion of TGF-β1 into the medium,[12],almost completely prevented the secretion of TGF-β1
same,toxic side-effects of methotrexate on human renal proximal tubule epithelial cells (apoptotic cell death),[13],potently inhibits the toxic side-effects of methotrexate
same,relative potency of PACAP38 and VIP on interleukin-2 secretion,[14],appeared to be equipotent
same,mitogen-induced secretion of interleukin-2 into the medium,[14],large significant inhibition
"PACAP(6-38) (FTDSYSRYRKQMAVKKYLAAVLGKRYKQRVKNK; ends and bridges not checked; UniProt P18509 137-169, looked up, fragment) [a PACAP/VIP receptor antagonist]",growth of xenografts,[15],inhibited the growth
same,growth of xenografts,[16],inhibited the growth
same,growth of xenografts,[17],inhibited the growth
VIP (HSDAVFTDNYTRLRKQMAVKKYLNSILN-NH2; listed as Homo sapiens),rate of proliferation of the human T-lymphocyte cell line,[3],significant dose-dependent inhibition
same,cyclosporine-induced inhibition of interleukin-2 secretion,[6],small dose-dependent enhancement
same,loss of viable human renal proximal tubule epithelial cells caused by tacrolimus,[8],significant dose-dependent reduction
same,mitogen-induced secretion of interleukin-2 into the medium,[14],large significant inhibition
[Aib^2]PACAP38 (H[Aib]DGIFTDSYSRYRKQMAVKKYLAAVLGKRYKQRVKNK; ends and bridges not checked),rate of proliferation of the human T-lymphocyte cell line,[3],significant dose-dependent inhibition
same,rate of proliferation of the human B-lymphocyte cell line,[2],significant dose-dependent inhibition
"[Ala^16,Ala^17,D-Lys^38]PACAP38 (HSDGIFTDSYSRYRKAAAVKKYLAAVLGKRYKQRVKN[dK]; ends and bridges not checked)",loss of viable human renal proximal tubule epithelial cells caused by tacrolimus,[8],significant dose-dependent reduction
[Ala^22]PACAP38 (HSDGIFTDSYSRYRKQMAVKKALAAVLGKRYKQRVKNK; ends and bridges not checked),rate of proliferation of the human B-lymphocyte cell line,[2],significant dose-dependent inhibition
"[D-Ser^2,Lys^38-palmitoyl]PACAP38 (H[dS]DGIFTDSYSRYRKQMAVKKYLAAVLGKRYKQRVKNK(Palmitoyl); not fully specified (C-terminus))",loss of viable human renal proximal tubule epithelial cells caused by tacrolimus,[8],significant dose-dependent reduction
[D-Ser^2]PACAP38 (H[dS]DGIFTDSYSRYRKQMAVKKYLAAVLGKRYKQRVKNK; not fully specified (C-terminus)),rate of proliferation of the human T-lymphocyte cell line,[3],significant dose-dependent inhibition
same,cyclosporine-induced inhibition of interleukin-2 secretion,[6],small dose-dependent enhancement
same,loss of viable human renal proximal tubule epithelial cells caused by tacrolimus,[8],significant dose-dependent reduction
same,mitogen-induced secretion of interleukin-2 into the medium,[14],large significant inhibition
[Lys^34]PACAP38 (HSDGIFTDSYSRYRKQMAVKKYLAAVLGKRYKQKVKNK; ends and bridges not checked),rate of proliferation of the human B-lymphocyte cell line,[2],significant dose-dependent inhibition
[^125I]-PACAP38,half-life in the bloodstream,[18],5 to 6 min
